Test system: 422866-222-R5-J1-PDC spheroids with HUVEC/MSC, viability
Assay: Anticancer human tumor 422866-222-R5-J1-PDC patient-derived pancreatic adenocarcinoma cell line growth inhibition [GQUAD]
Settings: for IC50: curve of first compound; for viability, T/C: stronger effect = lower value; active = viability on the fitted dose curve at most 10% of control; inactive = the rest
Method in brief: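 Viability of tumor cells grown as complex spheroids with endothelial and stromal cells, exposed to drug combinations. Top concentration at or near clinical Cmax (else 10 microM), diluted in half-log increments.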

[1] = second compound 0.0316 µM, first compound 0.0316 µM
[2] = second compound 0.0316 µM, first compound 0.1 µM
[3] = second compound 0.0316 µM, first compound 0.316 µM
[4] = second compound 0.0316 µM, first compound 1 µM
[5] = second compound 0.0316 µM, first compound 3.16 µM
[6] = second compound 0.0316 µM, first compound 10 µM
[7] = second compound 0.1 µM, first compound 0.0316 µM
[8] = second compound 0.1 µM, first compound 0.1 µM
[9] = second compound 0.1 µM, first compound 0.316 µM
[10] = second compound 0.1 µM, first compound 1 µM
[11] = second compound 0.1 µM, first compound 3.16 µM
[12] = second compound 0.1 µM, first compound 10 µM
[13] = second compound 0.316 µM, first compound 0.0316 µM
[14] = second compound 0.316 µM, first compound 0.1 µM
[15] = second compound 0.316 µM, first compound 0.316 µM
[16] = second compound 0.316 µM, first compound 1 µM
[17] = second compound 0.316 µM, first compound 3.16 µM
[18] = second compound 0.316 µM, first compound 10 µM
[19] = second compound 1 µM, first compound 0.0316 µM
[20] = second compound 1 µM, first compound 0.1 µM
[21] = second compound 1 µM, first compound 0.316 µM
[22] = second compound 1 µM, first compound 1 µM
[23] = second compound 1 µM, first compound 3.16 µM
[24] = second compound 1 µM, first compound 10 µM
[25] = second compound 3.16 µM, first compound 0.0316 µM
[26] = second compound 3.16 µM, first compound 0.1 µM
[27] = second compound 3.16 µM, first compound 0.316 µM
[28] = second compound 3.16 µM, first compound 1 µM
[29] = second compound 3.16 µM, first compound 3.16 µM
[30] = second compound 3.16 µM, first compound 10 µM
[31] = second compound 10 µM, first compound 0.0316 µM
[32] = second compound 10 µM, first compound 0.1 µM
[33] = second compound 10 µM, first compound 0.316 µM
[34] = second compound 10 µM, first compound 1 µM
[35] = second compound 10 µM, first compound 3.16 µM
[36] = second compound 10 µM, first compound 10 µM
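Note: spheroids exposed to compounds for seven days before reading.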
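Throughout, for viability, T/C: percent viability relative to DMSO vehicle control taken as 100%.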

C#Cc1c(F)ccc2cc(O)cc(-c3ncc4c(N5CC6CCC(C5)N6)nc(OCC56CCCN5CC(F)C6)nc4c3F)c12 (stereo unspecified) + Cc1cnc(CNC(=O)c2c(=O)c3ccc(N4CCCN(C)CC4)nc3n3c2sc2ccccc23)cn1
inactive: viability, T/C [1] 95.9% | viability, T/C [2] 87% | viability, T/C [3] 72% | viability, T/C [4] 57.1% | viability, T/C [5] 43% | viability, T/C [6] 29.5% | viability, T/C [7] 98.4% | viability, T/C [8] 97.9% | viability, T/C [9] 69.7% | viability, T/C [10] 55.3% | viability, T/C [11] 42.5% | viability, T/C [12] 30.7% | viability, T/C [13] 97% | viability, T/C [14] 79.4% | viability, T/C [15] 75.4% | viability, T/C [16] 65.6% | viability, T/C [17] 49.8% | viability, T/C [18] 36.1% | viability, T/C [19] 95.8% | viability, T/C [20] 86.3% | viability, T/C [21] 73.6% | viability, T/C [22] 57.4% | viability, T/C [23] 55% | viability, T/C [24] 39.7% | viability, T/C [25] 77.4% | viability, T/C [26] 85.1% | viability, T/C [27] 78.8% | viability, T/C [28] 58.2% | viability, T/C [29] 49.7% | viability, T/C [30] 37% | viability, T/C [31] 70.5% | viability, T/C [32] 82% | viability, T/C [33] 73% | viability, T/C [34] 52.4% | viability, T/C [35] 43.3% | viability, T/C [36] 34.4%
3460 nM: IC50 (second compound 1 µM)
2320 nM: IC50 (second compound 3.16 µM)
1410 nM: IC50 (second compound 0.1 µM)
1760 nM: IC50 (second compound 0.0316 µM)
3220 nM: IC50 (second compound 0.316 µM)
1360 nM: IC50 (second compound 10 µM)

C=CC(=O)N1CCN(c2nc(=O)n(-c3c(C)ccnc3C(C)C)c3nc(-c4c(O)cccc4F)c(F)cc23)C(C)C1 (stereo unspecified) + Cc1cnc(CNC(=O)c2c(=O)c3ccc(N4CCCN(C)CC4)nc3n3c2sc2ccccc23)cn1
inactive: viability, T/C [1] 41.2% | viability, T/C [2] 32.1% | viability, T/C [3] 28.1% | viability, T/C [4] 19.9% | viability, T/C [5] 33.4% | viability, T/C [6] 30.6% | viability, T/C [7] 40.4% | viability, T/C [8] 30.4% | viability, T/C [9] 26.7% | viability, T/C [10] 25.7% | viability, T/C [11] 32.6% | viability, T/C [12] 30.6% | viability, T/C [13] 36.8% | viability, T/C [14] 30.4% | viability, T/C [15] 27.2% | viability, T/C [16] 29% | viability, T/C [17] 34% | viability, T/C [18] 33.7% | viability, T/C [19] 29.3% | viability, T/C [20] 28.6% | viability, T/C [21] 30.2% | viability, T/C [22] 28.1% | viability, T/C [23] 35.9% | viability, T/C [24] 37.7% | viability, T/C [25] 32% | viability, T/C [26] 32.4% | viability, T/C [27] 29.8% | viability, T/C [28] 27.9% | viability, T/C [29] 37.3% | viability, T/C [30] 36.4% | viability, T/C [31] 30.5% | viability, T/C [32] 23.3% | viability, T/C [33] 28.9% | viability, T/C [34] 27.8% | viability, T/C [35] 33.5% | viability, T/C [36] 34.2%
< 31.6 nM: IC50 (second compound 0.0316 µM) | IC50 (second compound 0.1 µM) | IC50 (second compound 0.316 µM) | IC50 (second compound 1 µM) | IC50 (second compound 3.16 µM) | IC50 (second compound 10 µM)

CCc1c2c(nc3ccc(O)cc13)-c1cc3c(c(=O)n1C2)COC(=O)[C@]3(O)CC + Cc1cnc(CNC(=O)c2c(=O)c3ccc(N4CCCN(C)CC4)nc3n3c2sc2ccccc23)cn1
73.2 nM: IC50 (second compound 1 µM)
15.9 nM: IC50 (second compound 0.1 µM)
1.87 nM: IC50 (second compound 0.0316 µM)
106 nM: IC50 (second compound 10 µM)
inactive: viability, T/C (second compound 0.0316 µM, first compound 0.000999 µM) 56.2% | viability, T/C (second compound 0.0316 µM, first compound 0.00316 µM) 42.2% | viability, T/C (second compound 0.0316 µM, first compound 0.00999 µM) 44.1% | viability, T/C [1] 41.3% | viability, T/C (second compound 0.0316 µM, first compound 0.0999 µM) 37.7% | viability, T/C [3] 24.5% | viability, T/C (second compound 0.1 µM, first compound 0.000999 µM) 66.8% | viability, T/C (second compound 0.1 µM, first compound 0.00316 µM) 59.2% | viability, T/C (second compound 0.1 µM, first compound 0.00999 µM) 50.4% | viability, T/C [7] 46.3% | viability, T/C (second compound 0.1 µM, first compound 0.0999 µM) 44.9% | viability, T/C [9] 34.8% | viability, T/C (second compound 0.316 µM, first compound 0.000999 µM) 75.4% | viability, T/C (second compound 0.316 µM, first compound 0.00316 µM) 63.1% | viability, T/C (second compound 0.316 µM, first compound 0.00999 µM) 56.4% | viability, T/C [13] 47.7% | viability, T/C (second compound 0.316 µM, first compound 0.0999 µM) 46.6% | viability, T/C [15] 30.2% | viability, T/C (second compound 1 µM, first compound 0.000999 µM) 73.4% | viability, T/C (second compound 1 µM, first compound 0.00316 µM) 76% | viability, T/C (second compound 1 µM, first compound 0.00999 µM) 59.6% | viability, T/C [19] 59.4% | viability, T/C (second compound 1 µM, first compound 0.0999 µM) 49.3% | viability, T/C [21] 28.2% | viability, T/C (second compound 3.16 µM, first compound 0.000999 µM) 70.2% | viability, T/C (second compound 3.16 µM, first compound 0.00316 µM) 77.4% | viability, T/C (second compound 3.16 µM, first compound 0.00999 µM) 62.5% | viability, T/C [25] 55.7% | viability, T/C (second compound 3.16 µM, first compound 0.0999 µM) 46.5% | viability, T/C [27] 26.3% | viability, T/C (second compound 10 µM, first compound 0.000999 µM) 72.5% | viability, T/C (second compound 10 µM, first compound 0.00316 µM) 74.8% | viability, T/C (second compound 10 µM, first compound 0.00999 µM) 68% | viability, T/C [31] 60.2% | viability, T/C (second compound 10 µM, first compound 0.0999 µM) 54.9% | viability, T/C [33] 22.1%
62.2 nM: IC50 (second compound 3.16 µM)
25.5 nM: IC50 (second compound 0.316 µM)

— PubChem BioAssay AID2060511 (Molecular Pharmacology Branch, DTP, NCI, 2025)
